Assay results from patent US20200148617A1, “GEMCABENE, PHARMACEUTICALLY ACCEPTABLE SALTS THEREOF, COMPOSITIONS THEREOF AND METHODS OF USE THEREFOR” (GEMPHIRE THERAPEUTICS INC., priority 2017, published 2020).

Tests used:
[1] = Particle size distribution by laser light diffraction (Malvern Mastersizer 2000, Fraunhofer); assay type: physicochemical; settings: cumulative volume
Protocol: In some embodiments, the particle size distribution and the PSD90 of a compound of the invention is determined by the laser light diffraction particle size distribution analysis. The particle size distribution is determined in accordance with the Fraunhofer light diffraction method. In this method, a coherent laser beam passes through the sample and the resulting diffraction pattern is focused on a multi-element detector. Since the diffraction pattern depends, among other parameters, on particle size, the particle size distribution can be calculated based on the measured diffraction pattern of the sample. The method is described in more detail in USP38-NF33, <429> Light Diffraction Measurement of Particle Size.
The particle size distribution was determined in accordance with the Fraunhofer light diffraction method. A coherent laser beam was passed through the sample and the resulting diffraction pattern was focused on a multi-element detector. Because the diffraction pattern depends, among other parameters, on particle size, the particle size distribution (PSD) was calculated based on the measured diffraction patter of the sample.
Stock dispersion solution was prepared by adding a few drops of the dispersing aid (e.g., 1% w/w solution of a detergent in white spirit such as Span 80, Fluka (85548-250 ml)) to an appropriate amount of substance and mixed carefully. The dispersion was then slowly diluted to a final volume of about 10 ml while vortexing. The suspension cell of the instrument (Malvern Mastersizer 2000 equipped with Hydro 2000S sample dispersion unit) was filled with dispersion medium and a background measurement was taken. […] The cumulative volume distribution was determined in accordance with the instrument's instruction manual.
The PSD10, PSD50, and PSD90 values were determined from the cumulative volume distribution of each measurement. Values smaller than 10 μm were reported to one decimal place. Results larger than 10 μm were reported as single digit values. Sample parameters used in analysis are shown below: […]

[2] = tested on: patients with hypercholesterolemia on stable statins; test: 12-week placebo-controlled study of 600 mg QD in hypercholesterolemia patients on stable moderate and high-intensity statins: atherogenic and inflammatory biomarkers; assay type: in vivo, human; settings: add-on to background statins
Protocol: High-risk patients including some, but not all those with heterozygous familial hypercholesterolemia (HeFH) or atherosclerotic cardiovascular disease (ASCVD) on appropriate diet and stable statin therapy for at least 12 weeks and LDL-C ≥100 mg/dL (2.59 mmol/L) and triglycerides <500 mg/dL (5.65 mmol/L) were randomized into a 12-week, placebo-controlled, parallel-group, double-blind study to assess the efficacy of gemcabene calcium salt hydrate Crystal Form 1 (PSD90=52 μm) 600 mg (300-mg Tablet D×2) QD on LDL-C and other lipoproteins and hsCRP (high-sensitivity C-reactive protein). Safety and tolerability were also evaluated. […]
Within the study population, an analysis was performed in a subpopulation of patients having mixed dyslipidemia (LDL-C ≥100 mg/dL and triglycerides ≥200 and <500 mg/dL). Eighteen patients (10 (Tablet D×2) patients and 8 placebo patients) having a baseline mean LDL-C level of 142 mg/dL, baseline mean triglyceride level of 247 mg/dL and BMI of 34 kg/m^2 were analyzed (FIG. 48). Although not measured in the subpopulation of this Example, some cardiometabolic patients could have elevated sulphatase-2 (Sulf-2) levels, which are believed to cause reduced Syndecan-1 (also known as “remnant receptor”)-mediated clearance of atherogenic remnant lipoproteins. […]

[3] = 12-week placebo-controlled study of 600 mg QD in hypercholesterolemia patients on statins: safety and tolerability; assay type: in vivo; settings: add-on to highest doses of background statins
Protocol: High-risk patients including some, but not all those with heterozygous familial hypercholesterolemia (HeFH) or atherosclerotic cardiovascular disease (ASCVD) on appropriate diet and stable statin therapy for at least 12 weeks and LDL-C ≥100 mg/dL (2.59 mmol/L) and triglycerides <500 mg/dL (5.65 mmol/L) were randomized into a 12-week, placebo-controlled, parallel-group, double-blind study to assess the efficacy of gemcabene calcium salt hydrate Crystal Form 1 (PSD90=52 μm) 600 mg (300-mg Tablet D×2) QD on LDL-C and other lipoproteins and hsCRP (high-sensitivity C-reactive protein). Safety and tolerability were also evaluated. The patients were stratified by high- or moderate-intensity statin therapy, with or without ezetimibe, with a target of 52 patients (26 patients on 600 mg gemcabene calcium salt hydrate Crystal Form 1 as administered by 2× Tablet D and 26 patients on placebo (“placebo”)) in each stratum. […] Mean baseline LDL-C for all patients was approximately 134 mg/dL (3.48 mmol/L) with most patients in the high-intensity statin stratum on atorvastatin and most patients in the moderate-intensity stratum on either simvastatin or atorvastatin.
33 of 54 patients (61.1%) in the Tablet D group and 24 of 51 patients (47.1%) in the placebo group who reported at least one AE during the study. The most prevalent AEs were those associated with infections. […]

Compound: CC(C)(CCCCOCCCCC(C)(C)C(=O)[O-])C(=O)[O-].O.[Ca+2] [6-(5-Carboxy-5-methyl-hexyloxy)-2,2-dimethylhexanoic acid calcium (gemcabene calcium salt) hydrate Crystal Form 1]
- D10 (PSD10) [1]: D10 = 8.9 μm
- D50 (PSD50) [1]: D50 = 24.3 μm
- D90 (PSD90) [1]: D90 = 44.1 μm
- serum hsCRP [2]: decreased
- muscle or liver related toxicities [3]: No evidence
